Where no end group is shown, it is not given here.
Tested on: antibodies in cerebrospinal fluid (CSF) and sera
Assay: Dot-blot analysis of CSF and sera for antibodies to CNP 173-184 peptide
Assay type: binding, human
Conditions: for patients whose CSF had antibodies to the peptide: data not shown
Description: Cerebrospinal fluid (CSF) and sera from MS patients and controls were analyzed for antibodies to the peptide derived from CNP isoform 2 (corresponding to amino acids 173-184) using dot-blot analyses. Samples from nine MS patients and five patients with other neurologic diseases (OND) were analyzed. The CNP 173-184 peptide coupled to BSA was adsorbed onto nitrocellulose membranes. Control wells received BSA alone. Two dilutions of paired spinal fluids and sera were added to the wells and the amount of antibody binding determined using peroxidase labeled anti-human IgG and an enhanced chemiluminescent assay (ECL Western Blotting Kit; Amersham International, Plc., Buckinghamshire, England). Using the public domain program, Image 1.40 (available from NIH), the integrated densities of the dots in the CNP 173-184 peptide wells and BSA wells were determined.

Sequence: LKKLKPGLEKDF [CNP 173-184 peptide]
- patients whose CSF had antibodies to the peptide (MS patients): 5/9
- patients whose CSF had antibodies to the peptide (OND patients): 0/5
- densities in peptide wells relative to BSA wells (MS CSF): approximately twofold
- number of patients with antibodies in sera (MS patients): 3
- number of patients with antibodies in sera (OND patients): 1

— patent publication US5874405A, “Heat shock protein peptides that share sequences with cyclic nucleotide phosphodiesterase and methods for modulating autoimmune central nervous system disease” (priority 1994, dated 1999)
